The supplement of paper PMC11451515

System: SEM cells
Assay: cell viability relative to DMSO control; higher = less cytotoxic
Settings: 48 h
Method in brief: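 Cells were incubated for 48 h at 37°C before CellTiter-Glo One luminescence was read. The cells were NOMO1 or SEM (500 cells/well) or P12-Ichikawa (1000 cells/well) leukemia cells, adapted for at least four passages in each medium and seeded in 1536-well plates (5 μl). Dosing used library compounds in DMSO applied by pin over 11 threefold points, 47 μM to 0.79 nM. Viability is the per-plate percentage of DMSO wells, with cell-free wells as background.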

[1] = HPLM + 10% dialyzed FBS, 0.000781 µM
[2] = HPLM + 10% dialyzed FBS, 0.00234 µM
[3] = HPLM + 10% dialyzed FBS, 0.00702 µM
[4] = HPLM + 10% dialyzed FBS, 0.0211 µM
[5] = HPLM + 10% dialyzed FBS, 0.0632 µM
[6] = HPLM + 10% dialyzed FBS, 0.19 µM
[7] = HPLM + 10% dialyzed FBS, 0.569 µM
[8] = HPLM + 10% dialyzed FBS, 1.71 µM
[9] = HPLM + 10% dialyzed FBS, 5.12 µM
[10] = HPLM + 10% dialyzed FBS, 15.4 µM
[11] = HPLM + 10% dialyzed FBS, 46.1 µM
[12] = RPMI 5 mM glucose + 10% FBS, 0.000781 µM
[13] = RPMI 5 mM glucose + 10% FBS, 0.00234 µM
[14] = RPMI 5 mM glucose + 10% FBS, 0.00702 µM
[15] = RPMI 5 mM glucose + 10% FBS, 0.0211 µM
[16] = RPMI 5 mM glucose + 10% FBS, 0.0632 µM
[17] = RPMI 5 mM glucose + 10% FBS, 0.19 µM
[18] = RPMI 5 mM glucose + 10% FBS, 0.569 µM
[19] = RPMI 5 mM glucose + 10% FBS, 1.71 µM
[20] = RPMI 5 mM glucose + 10% FBS, 5.12 µM
[21] = RPMI 5 mM glucose + 10% FBS, 15.4 µM
[22] = RPMI 5 mM glucose + 10% FBS, 46.1 µM
[23] = RPMI 5 mM glucose + 10% dialyzed FBS, 0.000781 µM
[24] = RPMI 5 mM glucose + 10% dialyzed FBS, 0.00234 µM
[25] = RPMI 5 mM glucose + 10% dialyzed FBS, 0.00702 µM
[26] = RPMI 5 mM glucose + 10% dialyzed FBS, 0.0211 µM
[27] = RPMI 5 mM glucose + 10% dialyzed FBS, 0.0632 µM
[28] = RPMI 5 mM glucose + 10% dialyzed FBS, 0.19 µM
[29] = RPMI 5 mM glucose + 10% dialyzed FBS, 0.569 µM
[30] = RPMI 5 mM glucose + 10% dialyzed FBS, 1.71 µM
[31] = RPMI 5 mM glucose + 10% dialyzed FBS, 5.12 µM
[32] = RPMI 5 mM glucose + 10% dialyzed FBS, 15.4 µM
[33] = RPMI 5 mM glucose + 10% dialyzed FBS, 46.1 µM

Structure (SMILES) | cell viability [1] [%] | cell viability [2] [%] | cell viability [3] [%] | cell viability [4] [%] | cell viability [5] [%] | cell viability [6] [%] | cell viability [7] [%] | cell viability [8] [%] | cell viability [9] [%] | cell viability [10] [%] | cell viability [11] [%] | cell viability [12] [%] | cell viability [13] [%] | cell viability [14] [%] | cell viability [15] [%] | cell viability [16] [%] | cell viability [17] [%] | cell viability [18] [%] | cell viability [19] [%] | cell viability [20] [%] | cell viability [21] [%] | cell viability [22] [%] | cell viability [23] [%] | cell viability [24] [%] | cell viability [25] [%] | cell viability [26] [%] | cell viability [27] [%] | cell viability [28] [%] | cell viability [29] [%] | cell viability [30] [%] | cell viability [31] [%] | cell viability [32] [%] | cell viability [33] [%]
CN1\C=N/C2=CC=C(NC3=CC(=CC=C3C)NC(=O)C4=CC(=CC=C4)C(C)(C)C#N)C=C2C1=O | 101 | 93.6 | 112 | 117 | 107 | 101 | 87.4 | 95.5 | 74.8 | 79.4 | 44.1 | 113 | 122 | 107 | 114 | 113 | 105 | 101 | 96.7 | 87.7 | 84.2 | 31.9 | 93.6 | 97.9 | 92.4 | 115 | 101 | 107 | 101 | 102 | 70 | 75.8 | 34.9
CC(=O)Oc1ccccc1C(=O)Nc1ncc([N+](=O)[O-])s1 | 85.4 | 88.9 | 89 | 91.3 | 84.3 | 107 | 98.3 | 104 | 96.9 | 93.1 | 66.3 | 85 | 100 | 92.6 | 101 | 90.5 | 107 | 94.7 | 101 | 104 | 85.4 | 79.6 | 87.1 | 93 | 99.6 | 100 | 108 | 106 | 101 | 104 | 100 | 94.2 | 82.7
O=C(O)c1cccnc1Nc1cccc(C(F)(F)F)c1 | 92.1 | 105 | 99.1 | 103 | 119 | 117 | 40.9 | 65.2 | 117 | 120 | 111 | 102 | 97.1 | 90.9 | 106 | 108 | 111 | 65.9 | 55.2 | 98.5 | 80.6 | 75.6 | 105 | 133 | 110 | 106 | 119 | 125 | 59.5 | 54.7 | 121 | 108 | 107
COC1=C(OCCCN2CCOCC2)C=C3N=CC=C(OC4=CC=C(C=C4F)\C5=C\N=C(\NC6=CC=C(F)C=C6)N(C)C5=O)C3=C1 | 110 | 112 | 110 | 91.7 | 68.9 | 57.7 | 59 | 52.4 | 47.8 | 40.7 | 5.64 | 103 | 108 | 113 | 81.2 | 79.4 | 65.2 | 46.7 | 56.5 | 52.6 | 37.6 | 1.97 | 110 | 116 | 103 | 77.9 | 73.8 | 52 | 45.9 | 44 | 43 | 34.8 | 3.15
CCCCOCCOc1nc(-c2ccc(C(=O)O)c(F)c2)sc1C | 124 | 126 | 120 | 125 | 123 | 124 | 108 | 111 | 115 | 109 | 119 | 101 | 111 | 113 | 118 | 104 | 109 | 107 | 102 | 102 | 84.5 | 106 | 105 | 113 | 108 | 122 | 121 | 111 | 116 | 120 | 97.4 | 104 | 121
Cc1csc(-c2nnc(Nc3ccc(Oc4ncccc4-c4ccnc(N)n4)cc3)c3ccccc23)c1 | 104 | 114 | 114 | 56 | 46 | 48.9 | 45 | 42.1 | 32.5 | 36.5 | 34.2 | 108 | 100 | 102 | 55.2 | 25.5 | 24.5 | 23.9 | 28.6 | 18.7 | 18.7 | 21 | 94 | 107 | 115 | 36.4 | 30 | 34 | 34.6 | 29.1 | 29.5 | 28.5 | 28.5
CC[C@@H]([C@H](C)O)n1ncn(-c2ccc(N3CCN(c4ccc(OCC5CO[C@@](Cn6cncn6)(c6ccc(F)cc6F)C5)cc4)CC3)cc2)c1=O (some centres undefined) | 92.3 | 110 | 107 | 107 | 114 | 100 | 107 | 100 | 102 | 59.1 | 82.7 | 96.7 | 101 | 109 | 105 | 105 | 115 | 93.8 | 103 | 86.9 | 87.7 | 78.2 | 112 | 111 | 108 | 124 | 106 | 105 | 106 | 115 | 102 | 90.7 | 81.8
CNc1nc(Nc2cnn([C@H]3CCN(C4COC4)C[C@@H]3F)c2Cl)ncc1C(F)(F)F | 96 | 89.1 | 97.7 | 103 | 109 | 105 | 112 | 93.1 | 37.7 | 20.9 | 26.5 | 103 | 123 | 108 | 112 | 85.3 | 55.7 | 65.5 | 20.1 | 18.9 | 16.1 | 17.6 | 101 | 106 | 112 | 116 | 126 | 106 | 106 | 73.6 | 32 | 17.6 | 17.1
CC1=CC(=CC(=C1C\C2=N\CCN2)C)C(C)(C)C | 58.5 | 90.1 | 83.4 | 100 | 88.3 | 98.1 | 97.4 | 100 | 106 | 107 | 77.6 | 77.8 | 104 | 91.7 | 101 | 103 | 96.4 | 110 | 104 | 110 | 83.3 | 94.9 | 89.1 | 96.3 | 102 | 105 | 118 | 107 | 118 | 112 | 113 | 120 | 94.7
O=C(c1ccccc1)c1ccc2n1CCC2C(=O)O (centres undefined) | 117 | 118 | 104 | 107 | 114 | 113 | 112 | 113 | 81.9 | 67.8 | 77.6 |  |  |  |  |  |  |  |  |  |  |  | 124 | 121 | 129 | 134 | 125 | 121 | 118 | 114 | 90.3 | 59.4 | 72.2
CCc1ccc(/C=C2/SC(=S)NC2=O)cc1 | 65.6 | 63.5 | 87.9 | 76.4 | 66.2 | 64.8 | 77.2 | 64.8 | 80.9 | 27.6 | 34.5 | 78 | 89.9 | 94 | 106 | 97 | 77.9 | 80 | 87.2 | 74.6 | 40.1 | 45.4 | 79.3 | 62.7 | 74 | 74.2 | 69.9 | 61 | 66.4 | 57.3 | 58.6 | 20.5 | 27
Cc1ccnc2c1NC(=O)c1cccnc1N2C1CC1 | 63.6 | 84.2 | 97.9 | 101 | 95.8 | 97.2 | 106 | 107 | 91.8 | 102 | 111 | 83.7 | 85.2 | 84.6 | 85.4 | 96.7 | 96.8 | 90.9 | 101 | 99.4 | 105 | 99.6 | 90.8 | 86.6 | 94.5 | 90.1 | 90.1 | 89.7 | 93 | 90.4 | 105 | 101 | 93.6
CCCCOc1c(C(=O)c2c(F)cc(C)cc2F)cnc2[nH]ncc12 | 107 | 111 | 104 | 110 | 115 | 108 | 108 | 92 | 70.4 | 64.1 | 30.9 | 104 | 105 | 103 | 113 | 114 | 118 | 114 | 89.6 | 60.6 | 71.8 | 35.6 | 93.2 | 96.5 | 96.9 | 86.8 | 107 | 106 | 104 | 84.4 | 71.6 | 56.8 | 25.3
OCC(O)C(O)C(O)CO (centres undefined) | 85.4 | 83.7 | 98.2 | 101 | 103 | 102 | 73.8 | 94.7 | 91.6 | 37.5 | 88.9 | 89 | 91.1 | 92.2 | 95.9 | 109 | 102 | 80.2 | 103 | 97.8 | 29.8 | 86.4 | 103 | 105 | 102 | 101 | 88.6 | 89.1 | 64.6 | 91.5 | 109 | 30.3 | 93
CC(C)c1cc(C(C)C)c(CC(=O)N[S+](=O)([O-])Oc2c(C(C)C)cccc2C(C)C)c(C(C)C)c1 | 93.7 | 108 | 107 | 96.2 | 100 | 106 | 108 | 102 | 99.7 | 99 | 95.1 | 114 | 119 | 114 | 121 | 114 | 121 | 116 | 115 | 130 | 122 | 115 | 90.5 | 104 | 103 | 104 | 108 | 104 | 103 | 97.3 | 96.8 | 88.6 | 93.3
